Reference: patent US10723711B2, “1,1,1-trifluoro-3-hydroxypropan-2-yl carbamate derivatives and 1,1,1-trifluoro-4-hydroxybutan-2-yl carbamate derivatives as MAGL inhibitors” (PFIZER INC., priority 2015, dated 2020)
Read-outs that look alike come from different tables or passages of the source.

Key:
Format in all cases: biochemical
[1] = target: T1, human recombinant Monoacylglycerol Lipase (Homo sapiens, UniProt Q99685); assay: MAGL inhibition enzymatic assay, fluorogenic substrate 7-HCA, IC50 at T=0 min or after 30 minute incubation (T=30 min); details: geometric mean of 2-4 determinations unless otherwise indicated
T1 sequence (Q99685 1-303): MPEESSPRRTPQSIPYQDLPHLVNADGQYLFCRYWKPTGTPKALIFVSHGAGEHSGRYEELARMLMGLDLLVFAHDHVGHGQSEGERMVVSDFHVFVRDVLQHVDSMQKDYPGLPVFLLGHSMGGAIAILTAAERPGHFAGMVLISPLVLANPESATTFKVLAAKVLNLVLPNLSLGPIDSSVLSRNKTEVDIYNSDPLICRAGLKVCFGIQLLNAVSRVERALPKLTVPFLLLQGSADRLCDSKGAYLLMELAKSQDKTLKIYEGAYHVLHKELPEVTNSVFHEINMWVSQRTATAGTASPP
Description: An equal volume of 7-HCA in assay buffer with 10% DMSO was added either immediately (T=0 min) or after a 30 minute incubation (T=30 min) to initiate the reaction. […] After these dilutions, the final concentration of the test compound ranged from 3 μM to 0.03 nM. […] IC50 values were generated based on a four parameter fit model using ABASE software from IDBS.

human recombinant FAAH = target: T2, human recombinant FAAH (Homo sapiens, UniProt O00519); assay: FAAH inhibition enzymatic assay, fluorescent substrate Arachidonoyl-AMC, 30 minute incubation; details: T = 30 min (30 minute incubation); geometric mean of 2-4 determinations unless otherwise indicated
T2 construct: purchased Cayman 10010183
T2 sequence (O00519 1-579): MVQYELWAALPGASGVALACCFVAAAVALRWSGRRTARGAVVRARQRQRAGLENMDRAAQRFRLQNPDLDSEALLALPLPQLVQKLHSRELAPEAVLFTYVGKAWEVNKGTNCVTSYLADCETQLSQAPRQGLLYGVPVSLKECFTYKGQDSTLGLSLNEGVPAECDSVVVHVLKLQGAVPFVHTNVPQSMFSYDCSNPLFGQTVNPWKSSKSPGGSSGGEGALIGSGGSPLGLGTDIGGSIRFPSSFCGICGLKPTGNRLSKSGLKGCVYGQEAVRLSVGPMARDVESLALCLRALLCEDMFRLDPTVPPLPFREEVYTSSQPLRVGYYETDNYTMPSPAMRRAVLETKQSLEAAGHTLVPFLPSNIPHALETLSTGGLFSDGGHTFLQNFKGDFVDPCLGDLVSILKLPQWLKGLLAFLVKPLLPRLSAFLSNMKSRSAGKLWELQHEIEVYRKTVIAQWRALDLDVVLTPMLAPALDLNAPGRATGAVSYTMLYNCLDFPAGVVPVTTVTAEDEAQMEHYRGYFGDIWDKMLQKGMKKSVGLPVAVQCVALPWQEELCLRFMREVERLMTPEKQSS

[2] = target: T1, human recombinant Monoacylglycerol Lipase; assay: MAGL inactivation, enzyme progress curves, kinact/KI; details: from enzyme progress curves, T = 0 min protocol; geometric mean of 2-4 determinations unless otherwise indicated
Summary of the method: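 Human recombinant MAGL ([…]) with compound, 7-HCA substrate (final 5 μM) added immediately (T=0 min), in pH 7.4 HEPES buffer with 0.1% Triton X-100 and 25% glycerin. Fluorescence (Ex/Em 340/465) was read every minute over 60 min, giving progress curves at decreasing compound concentrations (final 3 μM to 0.03 nM).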

[3] = T = 0 min (substrate added immediately), read-out: MAGL (T = 0 min) IC50
[4] = T = 30 min (30 minute incubation), read-out: MAGL (T = 30 min) IC50

Row | Structure (SMILES) | IC50 [1, 3] [nM] | IC50 [1, 4] [nM] | IC50 (human recombinant FAAH) [µM] | MAGL kinact/KI [2]
1 | O=C(O[C@H](CO)C(F)(F)F)N1CCC2(CC1)CCN(C(=O)c1ccccc1)C2 [Example 126] | 112 | 12 | > 30 | 3723 1/s per M
2 | O=C(O[C@H](CO)C(F)(F)F)N1CCC2(CC1)CCN(C(=O)C1CCC(F)(F)CC1)C2 [Example 127] | 163 | 17 | > 30 | 2067 1/s per M
3 | O=C(O[C@H](CO)C(F)(F)F)N1CCC2(CC1)CCN(C(=O)N1CCCC1)C2 [Example 133] | 174 | 20 | 4.75 | 3614 1/s per M
4 | O=C(O[C@H](CO)C(F)(F)F)N1CCC2(CC1)CCN(S(=O)(=O)c1nccs1)C2 [Example 134] | 96 | 7 | > 23.4 | 9930 1/s per M
5 | O=C(O[C@H](CO)C(F)(F)F)N1CCC2(CC1)CCN(S(=O)(=O)c1cccnc1)C2 [Example 135] | 168 | 13 | > 30 | 4723 1/s per M
6 | CN([C@H]1COC2(CCN(C(=O)O[C@H](CO)C(F)(F)F)CC2)C1)S(=O)(=O)c1nccs1 [Example 136] | 52 | 5 | > 30 | 15516 1/s per M
7 | CN([C@H]1COC2(CCN(C(=O)O[C@H](CO)C(F)(F)F)CC2)C1)S(=O)(=O)CC(F)(F)F [Example 137] | 126 | 11 | > 30 | 7582 1/s per M
8 | CN([C@H]1COC2(CCN(C(=O)O[C@H](CO)C(F)(F)F)CC2)C1)S(=O)(=O)c1cnn(C)c1 [Example 138] | 185 | 15 | 16.3 | 2154 1/s per M
9 | CC(C)CS(=O)(=O)N(C)[C@H]1COC2(CCN(C(=O)O[C@H](CO)C(F)(F)F)CC2)C1 [Example 139] | 153 | 15 | > 30 | 3058 1/s per M
10 | CN([C@H]1COC2(CCN(C(=O)O[C@H](CO)C(F)(F)F)CC2)C1)S(=O)(=O)CC1CCC1 [Example 140] | 94 | 9 | > 30 | 4595 1/s per M
11 | CN(C(=O)c1cccc(F)c1)[C@H]1COC2(CCN(C(=O)O[C@H](CO)C(F)(F)F)CC2)C1 [Example 141] | 77 | 7 | > 30 | 3519 1/s per M
12 | CN(C(=O)C1CCC1)[C@H]1COC2(CCN(C(=O)O[C@H](CO)C(F)(F)F)CC2)C1 [Example 142] | 84 | 9 | > 30 | 3961 1/s per M
13 | CN(C(=O)CC1CCC1)[C@H]1COC2(CCN(C(=O)O[C@H](CO)C(F)(F)F)CC2)C1 [Example 143] | 96 | 10 | > 30 | 2585 1/s per M
14 | CC(C)CC(=O)N(C)[C@H]1COC2(CCN(C(=O)O[C@H](CO)C(F)(F)F)CC2)C1 [Example 144] | 105 | 10 | > 30 | 2802 1/s per M
15 | CN(C(=O)CC1CC1)[C@H]1COC2(CCN(C(=O)O[C@H](CO)C(F)(F)F)CC2)C1 [Example 145] | 198 | 19 | > 30 | 1476 1/s per M
